# According to patent US10336762B2 (priority 2017, dated 2019):
# pEC50, pIC50: −log10 of the molar value.
# Key:
# IRAK4 enzyme = IRAK4 enzyme (Homo sapiens (Human), UniProt Q9NWZ3); assay: biochemical; type: biochemical; details: IRAK4 enzyme, TR-FRET (HTRF), 500 μM ATP
# TNFα = assay: cells; type: cell-based, human; details: Homo sapiens, Monocyte, LPS-stimulated human monocytes, TNFα content; read-out: EC50 TNF
# Sequence of IRAK4 enzyme (Q9NWZ3 whole entry): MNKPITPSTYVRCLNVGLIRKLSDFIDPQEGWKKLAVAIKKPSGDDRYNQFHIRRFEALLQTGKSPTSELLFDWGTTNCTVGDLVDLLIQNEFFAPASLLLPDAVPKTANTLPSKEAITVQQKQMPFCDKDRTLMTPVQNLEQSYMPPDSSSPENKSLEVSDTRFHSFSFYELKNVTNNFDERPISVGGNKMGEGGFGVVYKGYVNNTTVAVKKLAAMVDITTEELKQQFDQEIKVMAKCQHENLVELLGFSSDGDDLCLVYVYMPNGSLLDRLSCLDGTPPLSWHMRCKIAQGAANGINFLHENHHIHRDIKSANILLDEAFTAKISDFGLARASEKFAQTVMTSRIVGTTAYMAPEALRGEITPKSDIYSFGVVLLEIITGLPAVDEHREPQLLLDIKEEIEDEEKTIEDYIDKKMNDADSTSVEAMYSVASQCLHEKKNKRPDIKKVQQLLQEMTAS
Structure (SMILES),pIC50 (IRAK4 enzyme),pEC50 (TNFα)
"CC(C)(O)[C@H](F)CNC(=O)c1cnc(-c2ccc3cc(C#N)cnn23)cc1N[C@H]1CC[C@@H](N2CCC(F)(F)C2)CC1 [Example 724, 6-(3-cyanopyrrolo[1,2-b]pyridazin-7-yl)-4-(((1s,4S)-4-(3,3-difluoropyrrolidin-1-yl)cyclohexyl)amino)-N-((R)-2-fluoro-3-hydroxy-3-methylbutyl)nicotinamide]",> 9.00,7.23
CNC(=O)OC[C@H]1C[C@H](Nc2cc(-c3ccc4cc(C#N)cnn34)ncc2C(=O)NC[C@@H](F)C(C)(C)O)C1 [Example 725],> 9.00,7.64
"COC(=O)NC(C)(C)CCCNc1cc(-c2ccc3cc(C#N)cnn23)ncc1C(=O)NC[C@@H](F)C(C)(C)O [Example 726, (R)-methyl (5-((2-(3-cyanopyrrolo[1,2-b]pyridazin-7-yl)-5-((2-fluoro-3-hydroxy-3-methylbutyl)carbamoyl)pyridin-4-yl)amino)-2-methylpentan-2-yl) carbamate]",8.40,6.77
"COC(=O)NC(C)(C)CCNc1cc(-c2ccc3cc(C#N)cnn23)ncc1C(=O)NC[C@@H](F)C(C)(C)O [Example 727, (R)-methyl (4-((2-(3-cyanopyrrolo[1,2-b]pyridazin-7-yl)-5-((2-fluoro-3-hydroxy-3-methylbutyl)carbamoyl)pyridin-4-yl)amino)-2-methylbutan-2-yl)carbamate]",8.52,6.69
"CC(C)(O)[C@H](F)CNC(=O)c1cnc(-c2ccc3cc(C#N)cnn23)cc1N[C@H]1C[C@H](CNC(=O)OCC(F)F)C1 [Example 728, 2,2-difluoroethyl (((1R,3r)-3-((2-(3-cyanopyrrolo[1,2-b]pyridazin-7-yl)-5-(((R)-2-fluoro-3-hydroxy-3-methylbutyl)carbamoyl)pyridin-4-yl)amino)cyclo-butyl)methyl)carbamate]",> 9.00,8.40
"CC(C)(O)[C@H](F)CNC(=O)c1cnc(-c2ccc3cc(C#N)cnn23)cc1N[C@H]1C[C@H](Cn2ccccc2=O)C1 [Example 729, 6-(3-cyanopyrrolo[1,2-b]pyridazin-7-yl)-N-((R)-2-fluoro-3-hydroxy-3-methylbutyl)-4-(((1r,3R)-3-((2-oxopyridin-1(2H)-yl)methyl)cyclobutyl)amino)nicotinamide]",9.00,7.24
CC(C)(O)[C@H](F)CNC(=O)c1cnc(-c2ccc3cc(C#N)cnn23)cc1N[C@H]1C[C@@H](CO)C1 [Example 730],> 9.00,7.40
"COC(=O)N[C@H]1C[C@@H](CNC(=O)c2cnc(-c3ccc4cc(C#N)cnn34)cc2NC23CCC(O)(CC2)CC3)C1 [Example 731, methyl ((1s,3s)-3-((6-(3-cyanopyrrolo[1,2-b]pyridazin-7-yl)-4-((4-hydroxybicyclo[2.2.2]octan-1-yl)amino)nicotin-amido)methyl)cyclobutyl) carbamate]",> 9.00,7.23
"N#Cc1cnn2c(-c3cc(NC45CCC(O)(CC4)CC5)c(C(=O)NC[C@H]4C[C@@H](NC(=O)C5CC5)C4)cn3)ccc2c1 [Example 732, 6-(3-cyanopyrrolo[1,2-b]pyridazin-7-yl)-N-(((1s,3s)-3-(cyclopropane-carboxamido)cyclobutyl)methyl)-4-((4-hydroxy-bicyclo[2.2.2]octan-1-yl)amino)nicotinamide]",9.00,7.05
"COC(=O)N[C@H]1C[C@H](CNC(=O)c2cnc(-c3ccc4cc(C#N)cnn34)cc2NC23CCC(O)(CC2)CC3)C1 [Example 733, methyl ((1r,3r)-3-((6-(3-cyanopyrrolo[1,2-b]pyridazin-7-yl)-4-((4-hydroxybicyclo[2.2.2]octan-1-yl)amino)nicotin-amido)methyl)cyclobutyl) carbamate]",8.70,6.61
"CN(C)C(=O)OC[C@H]1C[C@H](Nc2cc(-c3ccc4cc(C#N)cnn34)ncc2C(=O)NC[C@@H](F)C(C)(C)O)C1 [Example 734, ((1R,3r)-3-((2-(3-cyanopyrrolo[1,2-b]pyridazin-7-yl)-5-(((R)-2-fluoro-3-hydroxy-3-methylbutyl)carbamoyl)pyridin-4-yl)amino)cyclo-butyl)methyldimethyl-carbamate]",> 9.00,7.54
"CC(C)(O)[C@H](F)CNC(=O)c1cnc(-c2ccc3cc(C#N)cnn23)cc1N[C@H]1C[C@H](COC(=O)NC2CC2)C1 [Example 735, ((1R,3r)-3-((2-(3-cyano-pyrrolo[1,2-b]pyridazin-7-yl)-5-(((R)-2-fluoro-3-hydroxy-3-methylbutyl)carbamoyl)pyridin-4-yl)amino)cyclobutyl)methyl cyclopropylcarbamate]",9.00,7.00
"CC(C)(O)[C@H](F)CNC(=O)c1cnc(-c2ccc3cc(C#N)cnn23)cc1N[C@H]1C[C@H](COC(=O)NCC(F)F)C1 [Example 736, ((1R,3r)-3-((2-(3-cyano-pyrrolo[1,2-b]pyridazin-7-yl)-5-(((R)-2-fluoro-3-hydroxy-3-methylbutyl)carbamoyl)pyridin-4-yl)amino)cyclobutyl) methyl (2,2-difluoro-ethyl)carbamate]",> 9.00,7.32
"CC(C)(O)[C@H](F)CNC(=O)c1cnc(-c2ccc3cc(C#N)cnn23)cc1N[C@H]1C[C@H](COC(=O)N2CCC(F)(F)C2)C1 [Example 737, ((1R,3r)-3-((2-(3-cyano-pyrrolo[1,2-b]pyridazin-7-yl)-5-(((R)-2-fluoro-3-hydroxy-3-methylbutyl)carbamoyl)pyridin-4-yl)amino)cyclobutyl) methyl 3,3-difluoro-pyrrolidine-1-carboxylate]",> 9.00,7.59
"CC(C)(O)[C@H](F)CNC(=O)c1cnc(-c2ccc3cc(C#N)cnn23)cc1N[C@H]1C[C@H](COC(=O)N2CC(F)(F)C2)C1 [Example 738, ((1R,3r)-3-((2-(3-cyano-pyrrolo[1,2-b]pyridazin-7-yl)-5-(((R)-2-fluoro-3-hydroxy-3-methylbutyl)carbamoyl)pyridin-4-yl)amino)cyclobutyl) methyl 3,3-difluoro-azetidine-1-carboxylate]",> 9.00,7.54
"N#Cc1cnn2c(-c3cc(NC45CCC(O)(CC4)CC5)c(C(=O)NCC4(F)CCC4)cn3)ccc2c1 [Example 739, 6-(3-cyanopyrrolo[1,2-b]pyridazin-7-yl)-N-((1-fluorocyclobutyl)methyl)-4-((4-hydroxybicyclo[2.2.2]octan-1-yl)amino) nicotinamide]",8.40,6.56
"CC(C)(F)CNC(=O)c1cnc(-c2ccc3cc(C#N)cnn23)cc1NC12CCC(O)(CC1)CC2 [Example 740, 6-(3-cyanopyrrolo[1,2-b]pyridazin-7-yl)-N-(2-fluoro-2-methylpropyl)-4-((4-hydroxybicyclo[2.2.2]octan-1-yl)amino) nicotinamide]",8.40,6.58
"COC(=O)N1CC[C@H](CNC(=O)c2cnc(-c3ccc4cc(C#N)cnn34)cc2NC23CCC(O)(CC2)CC3)C1 [Example 741, (R)-methyl 3-((6-(3-cyano-pyrrolo[1,2-b]pyridazin-7-yl)-4-((4-hydroxybicyclo[2.2.2]octan-1-yl)amino)nicotin-amido)methyl)pyrrolidine-1-carboxylate]",> 9.00,6.91
"COC(=O)N1CC[C@@H](CNC(=O)c2cnc(-c3ccc4cc(C#N)cnn34)cc2NC23CCC(O)(CC2)CC3)C1 [Example 742, (S)-methyl 3-((6-(3-cyano-pyrrolo[1,2-b]pyridazin-7-yl)-4-((4-hydroxy-bicyclo[2.2.2]octan-1-yl)amino)nicotinamido)methyl)pyrrolidine-1-carboxylate]",9.00,6.90
"CNC(=O)OC[C@H](F)CNC(=O)c1cnc(-c2ccc3cc(C#N)cnn23)cc1NC12CCC(O)(CC1)CC2 [Example 743, (R)-3-(6-(3-cyano-pyrrolo[1,2-b]pyridazin-7-yl)-4-((4-hydroxy-bicyclo[2.2.2]octan-1-yl)amino)nicotin-amido)-2-fluoropropyl methylcarbamate]",> 9.00,7.27
"COC(=O)N1CC(CNC(=O)c2cnc(-c3ccc4cc(C#N)cnn34)cc2NC23CCC(O)(CC2)CC3)C1 [Example 744, methyl 3-((6-(3-cyano-pyrrolo[1,2-b]pyridazin-7-yl)-4-((4-hydroxy-bicyclo[2.2.2]octan-1-yl)amino)nicotinamido)methyl)azetidine-1-carboxylate]",8.70,6.80
"N#Cc1cnn2c(-c3cc(NC45CCC(O)(CC4)CC5)c(C(=O)NCCO)cn3)ccc2c1 [Example 745, 6-(3-cyanopyrrolo[1,2-b]pyridazin-7-yl)-4-((4-hydroxybicyclo[2.2.2]octan-1-yl)amino)-N-(2-hydroxyethyl)nicotinamide]",> 9.00,7.06
"COC(=O)NCCNC(=O)c1cnc(-c2ccc3cc(C#N)cnn23)cc1NC12CCC(O)(CC1)CC2 [Example 746, methyl (2-(6-(3-cyano-pyrrolo[1,2-b]pyridazin-7-yl)-4-((4-hydroxy-bicyclo[2.2.2]octan-1-yl)amino)nicotinamido)ethyl)carbamate]",9.00,6.98
"CNC(=O)O[C@@H]1CCC[C@H](Nc2cc(-c3ccc4cc(C#N)cnn34)ncc2C(=O)NC[C@@H](F)C(C)(C)O)C1 [Example 748, (1R,3S)-3-((2-(3-cyano-pyrrolo[1,2-b]pyridazin-7-yl)-5-(((R)-2-fluoro-3-hydroxy-3-methylbutyl)carbamoyl)pyridin-4-yl)amino)cyclohexyl methylcarbamate]",> 9.00,7.42
"CC(C)(O)[C@H](F)CNC(=O)c1cnc(-c2ccc3cc(C#N)cnn23)cc1NC1CC2(C1)CC(F)(F)C2 [Example 749, (R)-6-(3-cyanopyrrolo[1,2-b]pyridazin-7-yl)-4-((6,6-difluorospiro[3.3]heptan-2-yl)amino)-N-(2-fluoro-3-hydroxy-3-methylbutyl) nicotinamide]",> 9.00,7.28
